Reference: US20230092679A1, “MCL-1 INHIBITOR ANTIBODY-DRUG CONJUGATES AND METHODS OF USE” (NOVARTIS AG, priority 2019, published 2023)

Legend:
Format in all cases: cell-based
ocim1 = test: In vitro ADC activity, AML cell lines, CellTiter-Glo (Example 20); conditions: ocim1, 5 days
A4-Fuk = test: CellTiter-Glo proliferation assay (Example 6); parameters: key: **: tested but curve did not converge; conditions: CD38 Mcl-1 ADCs and payload P1, 5 days
Method: (§1) Mcl-1 ADCs were tested on nine endogenous cancer cell lines and one isogenic cell line engineered to overexpress a target of interest. Six targets were assessed: HER2, BCMA, CD38, CD48, CD79b, and CD33.
(§2) Cell lines • HER2: HCC1954 (ATCC No. CRL-2338 cultured in RPMI-1640+10% FBS) and HCC2218 (ATCC No. CRL-2343 cultured in RPMI-1640+10% FBS). • BCMA: NCI-H929 (ATCC No. CRL-9068 cultured in RPMI-1640+10% FBS+0.05 mM 2-mercaptoethanol). • CD38: A4-Fuk (JCRB No. JCRB0097 cultured in RPMI-1640+10% FBS) and KMS-21 BM (JCRB No. JCRB1185 cultured in RPMI-1640+10% FBS). • CD48: NCI-H929 (ATCC No. CRL-9068 cultured in RPMI-1640+10% FBS+0.05 mM 2-mercaptoethanol), OPM-2 (DSMZ No. ACC-50 cultured in RPMI-1640+10% FBS) and AMO1 (DSMZ No. ACC-538 cultured in RPMI-1640+20% FBS). • CD79b: RS4;11 (ATCC No. CRL-1873 cultured in RPMI-1640+10% FBS). • CD33: MOLM-13 (DSMZ No. ACC-554 cultured in RPMI-1640+10% FBS) and an isogenic cell line, AMO1-CD33 clone D2. AMO1 cell line was transfected to generate a stable AMO1 cell line expressing the exogenous protein of interest, CD33, AMO1-CD33 clone D2 (cultured in RPMI-1640+20% FBS).
(§3) The ability of Mcl-1 ADCs to inhibit cell proliferation and survival was assessed using a Promega CellTiter-Glo® proliferation assay. Cell lines were cultured in media optimal for their growth at 5% CO2, 37° C. in a tissue culture incubator. Prior to seeding for the proliferation assay, the cells were split at least 2 days before the assay to ensure optimal growth density. On the day of seeding, adherent cells were lifted off tissue culture flasks using 0.25% trypsin. Cell viability and cell density were determined using a cell counter (Vi-Cell XR Cell Viability Analyzer, Beckman Coulter). […] Cells were seeded at a density of 1,000 cells per well in 45 μl of standard growth media. Plates were incubated at 5% CO2, 37° C. overnight in a tissue culture incubator. The next day, free Mcl-1 payload (P1), targeting Mcl-1 ADCs, and non-targeting isotype ADCs were prepared at 10× in standard growth media. The prepared drug treatments were then added to the cells resulting in final concentrations of 0.0005-500 nM and a final volume of 50 μl per well. Each drug concentration was tested in quadruplets. Plates were incubated at 5% CO2, 37° C. for 5 days in a tissue culture incubator, after which cell viability was assessed through the addition of 25 μl of CellTiter Glo® (Promega, Cat. No. G7573), a reagent which lyses cells and measures total adenosine triphosphate (ATP) content. Plates were incubated at room temperature for 10 minutes to stabilize luminescent signals prior to reading using a luminescence reader (EnVision Multilabel Plate Reader, PerkinElmer). […]

KMS-21 BM = test: CellTiter-Glo proliferation assay (Example 6); parameters: key: **: tested but curve did not converge; conditions: CD38 Mcl-1 ADCs and payload P1, 5 days
Method: as §1, §2, §3

kg1 = test: In vitro ADC activity, AML cell lines, CellTiter-Glo (Example 20); conditions: kg1, 5 days
cmk = test: as above; conditions: 5 days
21435hx = test: as above; conditions: 5 days
molm13 = test: as above; conditions: molm13, 5 days

SMILES: COc1ccccc1-c1nccc(COc2ccccc2C[C@@H](Oc2ncnc3sc(-c4ccc(F)cc4)c(-c4ccc(OCCN5CCN(C)CC5)c(Cl)c4C)c23)C(=O)O)n1 [P1, (2R)-2-[5-[3-chloro-2-methyl-4-[2-(4-methylpiperazin-1-yl)ethoxy]phenyl]-6-(4-fluorophenyl)thieno[2,3-d]pyrimidin-4-yl]oxy-3-[2-[[2-(2-methoxyphenyl)pyrimidin-4-yl]methoxy]phenyl]propanoic acid]
- GI50 (ocim1; OCI-M1, 120 h): > 10 µM
- Amax (ocim1; unit assumed): 86%
- Amax A4FUK (A4-Fuk): **
- IC50 (nM) A4FUK (A4-Fuk): **
- Amax KMS21 BM (KMS-21 BM): **
- IC50 (nM) KMS21 BM (KMS-21 BM): **
- GI50 (kg1; Homo sapiens, KG-1, 120 h): 0.861 µM
- Amax (kg1; in % (unit assumed)): −69
- Amax (cmk; unit assumed): 100%
- GI50 (cmk; Homo sapiens, 120 h): > 10 µM
- GI50 (21435hx; 120 h): 0.012 µM
- Amax (21435hx; in % (unit assumed)): −91
- GI50 (molm13; Homo sapiens, MOLM-13, 120 h): 0.002 µM
- Amax (molm13; in % (unit assumed)): −54
